Data taken from patent US20240067634A1, “INHIBITORS OF NEF DOWNMODULATION” (priority 2020, published 2024).

The compounds below were run against V-ATPase-dependent lysosomal acidification (assay: cells). Conditions: 24 hr Lysotracker IC50; 1000 nM set as activity threshold (FIG. 11-14); read-out: Lyso IC50.
Type: cell-based, human
Source text: Determine effect on V-ATPase activity: Plecomacrolides are known inhibitors of V-ATPase that neutralize normally acidified lysosomes. […] Thus, analogs of the disclosure are further characterized by measuring their effects on lysosome acidification.
LysoTracker® is a fluorophore linked to a weak base that is partially protonated at neutral pH. This form of the probe is capable of freely permeating cell membranes of live cells. In acidic compartments, protonation creates a form that was impermeable causing the probe to accumulate inside the lysosome.
19-Deoxy-20-ene Baf A1 gave an IC50 of 341 nM.
Compound `CO/C1=C\C(C)=C\C(C)C(O)C(C)C/C(C)=C/C=C/C(OC)C(C(C)C(O)C(C)C2(O)CC(O[C@@H]3O[C@@H](C)[C@H](O)[C@@H](O)[C@H]3OC)C(C)C(C(C)C)O2)OC1=O` (some centres unmarked) [Leucanicidin, reference compound] has an IC50 of 2.04 nM.
`C/C=C/[C@H]1O[C@@](O)([C@@H](C)[C@H](O)[C@H](C)[C@H]2OC(=O)/C(OC)=C/C(C)=C/[C@@H](C)[C@@H](O)[C@@H](C)[C@@H](O)[C@H](C)C/C(C)=C/C=C/[C@@H]2OC)C[C@@H](O[C@H]2C[C@@H](O)[C@H](OC(N)=O)[C@@H](C)O2)[C@@H]1C` [CMB, Concanamycin B, reference compound] showed an IC50 of 29.6 nM.
In the case of 19-Deoxy-21-Methoxy Baf A1, the IC50 is reported as 49.6 nM.
`C#CCCC(=O)O[C@H]1C[C@@H](O[C@@H]2C[C@](O)([C@@H](C)[C@H](O)[C@H](C)[C@H]3OC(=O)/C(OC)=C/C(C)=C/[C@@H](C)[C@@H](O)[C@@H](CC)[C@@H](O)[C@H](C)C/C(C)=C/C=C/[C@@H]3OC)O[C@H](/C=C/C)[C@H]2C)O[C@@H](C)[C@@H]1OC(N)=O` [23-Alkyne CMC, 3′-pent-4-ynoate Concanamycins A-C] showed an IC50 of 5.72 nM.
19-Deoxy-21-allylester Baf A1 showed an IC50 of 152 nM.
Work on `CC=CC=CC1OC(O)(C(C)C(O)C(C)C2OC(=O)C(OC)=CC(C)=CC(C)C(O)C(C)CC(C)=CC=CC2OC)CC(OC2CC(O)C(O)C(C)O2)C1C` (centres unmarked) [PC-766B, reference compound] yielded an IC50 of 2.72 nM.
For `C/C=C/[C@H]1O[C@@](O)([C@@H](C)[C@H](O)[C@H](C)[C@H]2OC(=O)/C(OC)=C/C(C)=C/[C@@H](C)[C@@H](O)[C@@H](CC)[C@@H](O)[C@H](C)C/C(C)=C/C=C/[C@@H]2OC)C[C@@H](O[C@H]2C[C@@H](O)[C@H](O)[C@@H](C)O2)[C@@H]1C` [CMC, Concanamycin C, reference compound], the IC50 was 2.72 nM.
`C#CCCC(=O)O[C@H]1C[C@@H](O[C@@H]2C[C@](O)([C@@H](C)[C@H](O)[C@H](C)[C@H]3OC(=O)/C(OC)=C/C(C)=C/[C@@H](C)[C@@H](O)[C@@H](CC)[C@@H](O)[C@H](C)C/C(C)=C/C=C/[C@@H]3OC)O[C@H](/C=C/C)[C@H]2C)O[C@@H](C)[C@@H]1OC(N)=O` [23-Alkyne CMA, 3′-pent-4-ynoate Concanamycins A-C] gave an IC50 of 1.1 nM.

Same assay, conditions: Homo sapiens, PBMC, 24 h, 24 hr Lysotracker IC50; 1000 nM set as activity threshold (FIG. 11-14); read-out: Lyso IC50
`C#CCCC1(CCC(=O)O[C@H]2C[C@@H](O[C@@H]3C[C@](O)([C@@H](C)[C@H](O)[C@H](C)[C@H]4OC(=O)/C(OC)=C/C(C)=C/[C@@H](C)[C@@H](O)[C@@H](CC)[C@@H](O)[C@H](C)C/C(C)=C/C=C/[C@@H]4OC)O[C@H](/C=C/C)[C@H]3C)O[C@@H](C)[C@@H]2O)N=N1` [Dual Linear Probe CMA, 3′-(3-(3-(but-3-yn-1-yl)-3H-diazirin-3-yl)propanoate) Concanamycin A] gave an IC50 of 4.87 nM.
With `C=C/C=C/C(=O)O[C@@H]1C[C@](O)([C@@H](C)[C@H](O)[C@H](C)[C@H]2OC(=O)/C(OC)=C/C(C)=C/[C@@H](C)[C@@H](O)[C@@H](C)C/C(C)=C/C=C/[C@@H]2OC)O[C@H](C(C)C)[C@H]1C` [21-penta-2,4-dienoate Baf A1, 21-penta-2,4-dienoate Bafilomycin] the IC50 was 25.1 nM.
In the case of `C#CCCC(=O)O[C@@H]1C[C@](O)([C@@H](C)[C@H](O)[C@H](C)[C@H]2OC(=O)/C(OC)=C/C(C)=C/[C@@H](C)[C@@H](O)[C@@H](C)C/C(C)=C/C=C/[C@@H]2OC)O[C@H](C(C)C)[C@H]1C` [21 Alkyne Bafilomycin Probe, 21-pent-4-ynoate Bafilomycin], the IC50 is reported as 29.1 nM.
For `CO/C1=C\C(C)=C\[C@@H](C)[C@@H](O)[C@@H](C)C/C(C)=C/C=C/[C@H](OC)[C@@H]([C@@H](C)[C@@H](O)[C@H](C)[C@@]2(OC)C[C@@H](O)[C@H](C)[C@@H](C(C)C)O2)OC1=O` [BafA2, Bafilomycin A2], the IC50 was 25.3 nM.
`C/C=C/[C@H]1O[C@@H]([C@@H](C)[C@H](O)[C@H](C)[C@H]2OC(=O)/C(O)=C/C(C)=C/[C@@H](C)[C@@H](O)[C@@H](CC)[C@@H](O)[C@H](C)C/C(C)=C/C=C/[C@@H]2OC)C[C@@H](O)[C@@H]1C` [2-hydroxy-21-deoxy CMF, 21-deoxy-2-hydroxy-Concanamycin F] gave an IC50 of no less than 1000 nM.
Compound `C/C=C/[C@H]1O[C@@H]([C@@H](C)[C@H](O)[C@H](C)[C@H]2OC(=O)/C(OC)=C/C(C)=C/[C@@H](C)[C@@H](O)[C@@H](CC)[C@@H](O)[C@H](C)C/C(C)=C/C=C/[C@@H]2OC)C[C@@H](O[C@@H]2C[C@H](O)[C@@H](O)[C@H](C)O2)[C@@H]1C` [21-Deoxy CMC, 21-deoxy CMC] has an IC50 of 7.04 nM.
`C#CCCC(=O)O[C@@H]1C[C@H]([C@@H](C)[C@H](O)[C@H](C)[C@H]2OC(=O)/C(OC)=C/C(C)=C/[C@@H](C)[C@@H](O)[C@@H](C)C/C(C)=C/C=C/[C@@H]2OC)OC(C(C)C)[C@H]1C` (some centres unmarked) [19-Deoxy-21(4-Pentynoate) Baf A1, 19-deoxy-21-pent-4-ynoate Bafilomycin] gave an IC50 of 76.4 nM.
For `C#CCCC(=O)O[C@H]1C[C@@H](O[C@@H]2C[C@](O)([C@@H](C)[C@H](O)[C@H](C)[C@H]3OC(=O)/C(OC)=C/C(C)=C/[C@@H](C)[C@@H](O)[C@@H](C)[C@@H](O)[C@H](C)C/C(C)=C/C=C/[C@@H]3OC)O[C@H](/C=C/C)[C@H]2C)O[C@@H](C)[C@@H]1OC(N)=O` [23-Alkyne CMB, 3′-pent-4-ynoate Concanamycins A-C], the IC50 was 5.75 nM.
For `CO/C1=C\C(C)=C\[C@@H](C)[C@@H](O)[C@@H](C)C/C(C)=C/C=C/[C@H](OC)[C@@H]([C@@H](C)[C@@H](O)[C@H](C)[C@H]2C[C@@H](OC(=O)c3ccc(C4(C(F)(F)F)N=N4)cc3)[C@H](C)[C@@H](C(C)C)O2)OC1=O` [21-Y Bafilomycin Probe, 21-(3-(trifluoromethyl)-3H-diazirin-3-yl)benzoate Bafilomycin], the IC50 was no less than 1000 nM.
`C#CCCC1(CCC(=O)O[C@H]2C[C@@H](O[C@@H]3C[C@](O)([C@@H](C)[C@H](O)[C@H](C)[C@H]4OC(=O)/C(OC)=C/C(C)=C/[C@@H](C)[C@@H](O)[C@@H](C)[C@@H](O)[C@H](C)C/C(C)=C/C=C/[C@@H]4OC)O[C@H](/C=C/C)[C@H]3C)O[C@@H](C)[C@@H]2OC(N)=O)N=N1` [23-Dual Linear Probe CMB, 3′-(3-(3-(but-3-yn-1-yl)-3H-diazirin-3-yl)propanoate) Concanamycin B] was tested, and the IC50 was 23.2 nM.
Compound `C#CCCC1(CCC(=O)O[C@@H]2C[C@](O)([C@@H](C)[C@H](O)[C@H](C)[C@H]3OC(=O)/C(OC)=C/C(C)=C/[C@@H](C)[C@@H](O)[C@@H](C)C/C(C)=C/C=C/[C@@H]3OC)O[C@H](C(C)C)[C@H]2C)N=N1` [21 Dual Linear Bafilomycin Probe, 21-(3-(3-(but-3-yn-1-yl)-3H-diazirin-3-yl)propanoate) Bafilomycin] has an IC50 of 28.3 nM.
For `CCCCCCCCC(=O)O[C@@H]1C[C@](O)([C@@H](C)[C@H](O)[C@H](C)[C@H]2OC(=O)/C(OC)=C/C(C)=C/[C@@H](C)[C@@H](O)[C@@H](C)C/C(C)=C/C=C/[C@@H]2OC)O[C@H](C(C)C)[C@H]1C` [21-Nonanoate Baf A1, 21-nonanoate Bafilomycin], the IC50 was 146 nM.
In the case of `CO/C1=C\C(C)=C\[C@@H](C)[C@@H](O)[C@@H](C)C/C(C)=C/C=C/[C@H](OC)[C@@H]([C@@H](C)[C@@H](O)[C@H](C)[C@H]2C[C@@H](O)[C@H](C)[C@@H](C(C)C)O2)OC1=O` [19-Deoxy Baf A1, 19-deoxy Bafilomycin], the IC50 is reported as 111 nM.
For `C/C=C/CC(=O)O[C@@H]1C[C@](O)([C@@H](C)[C@H](O)[C@H](C)[C@H]2OC(=O)/C(OC)=C/C(C)=C/[C@@H](C)[C@@H](O)[C@@H](C)C/C(C)=C/C=C/[C@@H]2OC)O[C@H](C(C)C)[C@H]1C` [21-Penta-3-enoate Baf A1, 21-pent-3-enoate Bafilomycin], the IC50 was 60.2 nM.
`C#CCCC1(CCC(=O)O[C@H]2C[C@@H](O[C@@H]3C[C@](O)([C@@H](C)[C@H](O)[C@H](C)[C@H]4OC(=O)/C(OC)=C/C(C)=C/[C@@H](C)[C@@H](O)[C@@H](CC)[C@@H](O)[C@H](C)C/C(C)=C/C=C/[C@@H]4OC)O[C@H](/C=C/C)[C@H]3C)O[C@@H](C)[C@@H]2OC(N)=O)N=N1` [23-Dual Linear Probe CMC, 3′-(3-(3-(but-3-yn-1-yl)-3H-diazirin-3-yl)propanoate) Concanamycin C] showed an IC50 of 4.7 nM.
`CCCCC(=O)O[C@@H]1C[C@](O)([C@@H](C)[C@H](O)[C@H](C)[C@H]2OC(=O)/C(OC)=C/C(C)=C/[C@@H](C)[C@@H](O)[C@@H](C)C/C(C)=C/C=C/[C@@H]2OC)O[C@H](C(C)C)[C@H]1C` [21-Pentanoate Baf A1, 21-pentanone Bafilomycin] gave an IC50 of 62.3 nM.
With `C#CCCC(=O)O[C@@H]1[C@H](C)/C=C(C)/C=C(\OC)C(=O)O[C@H]([C@@H](C)[C@@H](O)[C@H](C)[C@@]2(O)C[C@@H](OC(=O)c3ccc(C4(C(F)(F)F)N=N4)cc3)[C@H](C)[C@@H](C(C)C)O2)[C@@H](OC)/C=C/C=C(\C)C[C@@H]1C` [7 Alkyne 21-Y Bafilomycin Probe, 21-(3-(trifluoromethyl)-3H-diazirin-3-yl)benzoate-7-pent-4-ynoate-Bafilomycin] the IC50 was no less than 1000 nM.

Same assay, conditions: Homo sapiens, PBMC, 24 h; read-out: Lyso IC50
`CO/C1=C\C(C)=C\[C@@H](C)C(=O)[C@@H](C)C/C(C)=C/C=C/[C@H](OC)[C@@H]([C@@H](C)[C@@H](O)[C@H](C)[C@@]2(O)C[C@@H](O)[C@H](C)[C@@H](C(C)C)O2)OC1=O` [7-One Baf A1, 7-one Bafilomycin] showed an IC50 of no less than 1000 nM.
`CO/C1=C\C(C)=C\[C@@H](C)C(=O)[C@@H](C)C/C(C)=C/C=C/[C@H](OC)[C@@H]([C@@H](C)[C@@H](O)[C@H](C)[C@@]2(O)CC(=O)[C@H](C)[C@@H](C(C)C)O2)OC1=O` [7,21-Dione Baf A1, 7,21-dione Bafilomycin] was tested, and the IC50 was no less than 1000 nM.
Work on `CO/C1=C\C(C)=C\[C@@H](C)[C@@H](O)[C@@H](C)C/C(C)=C/C=C/[C@H](OC)[C@@H]([C@@H](C)[C@@H](O)[C@H](C)[C@@]2(O)C[C@@H](OC(C)=O)[C@H](C)[C@@H](C(C)C)O2)OC1=O` [21-Acetyl Baf, 21-Acetyl Bafilomycin] yielded an IC50 of 22.7 nM.
